Measured values reported in US20080233187A1, “Method of Production of Fine-Crystalline Mixture Containing Non-Steroid Anti-Inflammatory Drug, Fine-Crystalline Mixture Obtainable by this Method and Solid Pharmaceutical Composition Containing this Mixture” (priority 2005, published 2008).

Key:
[1] = racemic mixture administered to a human; cited from earlier work
[2] = release rate of the active ingredient from capsules and tablets (European Pharmacopoeia, chapter 2.9.3.); format: physicochemical; conditions: tablets of recipe C2 composition with fine-crystalline mixture of the drug and microcrystalline cellulose, direct pressing (FIG. 5 and 6)
Protocol: The release rate of the active ingredient from the capsules prepared by the process described above, and for comparison also from the tablets, was tested by the method of the European Pharmacopoeia for testing solid pharmaceutical forms (chapter 2.9.3.). The medium used was phosphate buffer having pH 7.2.

[3] = most commonly represented sizes of crystals (photographs of the crystals); format: physicochemical
From the text: The auxiliary substance in the fine-crystalline mixtures was Avicel®.

## CC(C)Cc1ccc([C@@H](C)C(=O)O)cc1 [R(−)-ibuprofen, R(−)-2-(4-isobutylphenyl)-propionic acid]
[1]
  conversion of R(−)-enantiomer to the S(+) form: 50 to 60%

## CN1C(C(=O)Nc2ccccn2)=C(O)c2ccccc2S1(=O)=O [piroxicam, 4-hydroxy-2-methyl-3-[(2-pyridyl)aminocarbonyl]-2H-1,2-benzothiazin-1,1-dioxide]
[2]
  release of the active ingredient from the tablet: very fast release

## CC(C)Cc1ccc([C@H](C)C(=O)O)cc1 [coarse-crystalline S(+)-ibuprofen, S(+)-2-(4-isobutylphenyl)-propionic acid]
[3]; starting material (photograph FIG. 7)
  lengthwise size of the stick-form crystals: about 200 micrometers
[3]; starting material, no solvent
  length of crystals: 250 μm
  width of crystals: 65 μm

## CS(=O)(=O)Nc1ccc([N+](=O)[O-])cc1Oc1ccccc1 [nimesulide, N-(4-nitro-2-phenoxyphenyl)-methanesulphonamide]
[2]
  release of the active ingredient from the tablet: very fast release
